According to patent US6737383B1, “Herbicidal oxadiazolidines” (priority 1999, dated 2004):

Experiments:
bedstraw = experiment: Test B pre/postemergence bedstraw; format: in vivo, Galium aparine
Outline: (§1)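 Test chemicals in a non-phytotoxic solvent mixture with surfactant were sprayed preemergence onto planted seeds and postemergence onto plants 2 to 18 cm tall (1- to 4-leaf stage). After twelve to sixteen days in a greenhouse, injury was visually rated against untreated controls from 0 (no effect) to 10 (complete control).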

blackgrass = experiment: Test B pre/postemergence blackgrass; format: in vivo, Alopecurus myosuroides
Outline: as §1

surinam grass = experiment: Test B pre/postemergence surinam grass; format: in vivo, Brachiaria decumbens
Outline: as §1

cocklebur = experiment: Test B pre/postemergence cocklebur; format: in vivo, Xanthium strumarium
Outline: as §1

corn = experiment: Test B pre/postemergence corn; format: in vivo, Zea mays
Outline: as §1

crabgrass = experiment: Test B pre/postemergence crabgrass; format: in vivo, Digitaria sanguinalis
Outline: as §1

rape = experiment: Test B pre/postemergence rape; format: in vivo, Brassica napus
Outline: as §1

soybean = experiment: Test B pre/postemergence soybean; format: in vivo, Glycine max
Outline: as §1

sugar beet = experiment: Test B pre/postemergence sugar beet; format: in vivo, Beta vulgaris; details: for Plant response rating, Sugarbeets: Rate 250 g/ha
Outline: as §1

velvetleaf = experiment: Test B pre/postemergence velvetleaf; format: in vivo, Abutilon theophrasti; details: for Plant response rating, Velvetleaf: Rate 250 g/ha
Outline: as §1

wheat = experiment: Test B pre/postemergence wheat; format: in vivo, Triticum aestivum; details: for Plant response rating, Wheat: Rate 250 g/ha
Outline: as §1

wild oat = experiment: Test B pre/postemergence wild oat; format: in vivo, Avena fatua; details: for Plant response rating, Wild oats: Rate 250 g/ha
Outline: as §1

purple nutsedge = experiment: Test B pre/postemergence purple nutsedge; format: in vivo, Cyperus rotundus
Outline: as §1

rice = experiment: Test B flood test rice; format: in vivo, Oryza sativa
Outline: (§2)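 Read-out is a visual response score from 0 (no effect) to 10 (complete control), assigned by comparison with untreated controls. Treatment was applied at the 2-leaf stage, and plants stayed in the greenhouse for twelve to sixteen days before scoring.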

smallflower flatsedge = experiment: Test B flood test smallflower flatsedge; format: in vivo, Cyperus difformis
Outline: as §2

duck salad = experiment: Test B flood test duck salad; format: in vivo, Heteranthera limosa
Outline: as §2

bamyardgrass = experiment: Test B flood test barnyardgrass; format: in vivo, Echinochloa crus-galli
Outline: as §2

[1] = Postemergence, Rate 62 g/ha, scale 0 to 10, 0 is no effect, 10 is complete control
[2] = Postemergence, Rate 250 g/ha, scale 0 to 10, 0 no effect, 10 complete control
[3] = Preemergence, Rate 62 g/ha, scale 0 to 10 (0 no effect, 10 complete control)
[4] = Preemergence, Rate 125 g/ha, scale 0 to 10 (0 no effect, 10 complete control)
[5] = Preemergence, Rate 250 g/ha, scale of 0 to 10 where 0 is no effect and 10 is complete control
[6] = Preemergence, Rate 500 g/ha, scale 0 to 10 (0 no effect, 10 complete control)
[7] = Rate 125 g/ha, Postemergence, scale 0 to 10, 0 no effect, 10 complete control
[8] = Rate 500 g/ha, Postemergence, scale 0 to 10, 0 no effect, 10 complete control
[9] = Postemergence, Rate 125 g/ha, scale of 0 to 10 where 0 is no effect and 10 is complete control
[10] = Rate 62 g/ha, Postemergence, scale of 0 to 10 where 0 is no effect and 10 is complete control
[11] = Preemergence, Rate 125 g/ha, 0 is no effect, 10 is complete control
[12] = Preemergence, scale of 0 to 10 where 0 is no effect and 10 is complete control
[13] = Postemergence, scale 0 to 10, 0 is no effect, 10 is complete control
[14] = Rate 250 g/ha, headed Pre-emergence (flood test species), scale 0 to 10 (0 no effect, 10 complete control)
[15] = Rate 500 g/ha, headed Pre-emergence (flood test species), scale 0 to 10 (0 no effect, 10 complete control)
[16] = Rate 1000 g/ha, Pre-emergence (as headed), scale 0 to 10
[17] = Rate 2000 g/ha, Pre-emergence (as headed), scale 0 to 10

In the case of `CCn1c(=O)on(C(=O)N(c2ccc(F)cc2)C(C)C)c1=O` [Compound 107], the “Bedstraw plant response rating” value (bedstraw; [1]) is reported as 2, the “Bedstraw plant response rating” value (bedstraw; [2]) is reported as 4 and the “Bedstraw plant response rating” value (bedstraw; [3]) is reported as 2. For the same compound, the “Plant response rating, Bedstraw” value (bedstraw; [4]) was 7, the “Plant response rating, Bedstraw” value (bedstraw; [5]) was 10 and the “Bedstraw plant response rating” value (bedstraw; [6]) was 10. The “Bedstraw plant response rating” value (bedstraw; [7]) was 3, the “Bedstraw plant response rating” value (bedstraw; [8]) was 9 and the “Blackgrass plant response rating” value (blackgrass; [9]) was 7. The “Blackgrass plant response rating” value (blackgrass; [2]) was 8, the “Blackgrass plant response rating” value (blackgrass; [3]) was 9 and the “Plant response rating, Blackgrass” value (blackgrass; [4]) was 10. The “Plant response rating, Blackgrass” value (blackgrass; [5]) was 10, the “Blackgrass plant response rating” value (blackgrass; [6]) was 10 and the “Blackgrass plant response rating” value (blackgrass; [10]) was 7. For the same compound, the “Blackgrass plant response rating” value (blackgrass; [8]) was 8, the “B. signalgrass plant response rating” value (surinam grass; [1]) was 7 and the “B. signalgrass plant response rating” value (surinam grass; [2]) was 8. The “B. signalgrass plant response rating” value (surinam grass; [3]) was 5, the “Plant response rating, B. signalgrass” value (surinam grass; [4]) was 7 and the “Plant response rating, B. signalgrass” value (surinam grass; [5]) was 10. For the same compound, the “B. signalgrass plant response rating” value (surinam grass; [6]) was 10, the “B. signalgrass plant response rating” value (surinam grass; [7]) was 7 and the “B. signalgrass plant response rating” value (surinam grass; Rate 500 g/ha, Postemergence, scale of 0 to 10 where 0 is no effect and 10 is complete control) was 8. The “Cocklebur plant response rating” value (cocklebur; [9]) was 0, the “Cocklebur plant response rating” value (cocklebur; [2]) was 1 and the “Cocklebur plant response rating” value (cocklebur; [3]) was 0. For the same compound, the “Plant response rating, Cocklebur” value (cocklebur; [4]) was 0, the “Plant response rating, Cocklebur” value (cocklebur; [5]) was 0 and the “Cocklebur plant response rating” value (cocklebur; [6]) was 0. The “Cocklebur plant response rating” value (cocklebur; [10]) was 0, the “Cocklebur plant response rating” value (cocklebur; [8]) was 3 and the “Corn plant response rating” value (corn; [9]) was 2. For the same compound, the “Corn plant response rating” value (corn; [2]) was 5, the “Corn plant response rating” value (corn; [3]) was 4 and the “Plant response rating, Corn” value (corn; [4]) was 7. For the same compound, the “Plant response rating, Corn” value (corn; [5]) was 9, the “Corn plant response rating” value (corn; [6]) was 9 and the “Corn plant response rating” value (corn; [10]) was 2. The “Corn plant response rating” value (corn; [8]) was 6, the “Crabgrass plant response rating” value (crabgrass; [9]) was 8 and the “Crabgrass plant response rating” value (crabgrass; [2]) was 9. For the same compound, the “Crabgrass plant response rating” value (crabgrass; [3]) was 10, the “Plant response rating, Crabgrass” value (crabgrass; [4]) was 10 and the “Plant response rating, Crabgrass” value (crabgrass; [5]) was 10. The “Crabgrass plant response rating” value (crabgrass; [6]) was 10, the “Crabgrass plant response rating” value (crabgrass; [10]) was 8 and the “Crabgrass plant response rating” value (crabgrass; [8]) was 9. For the same compound, the “Rape plant response rating” value (rape; [9]) was 2, the “Rape plant response rating” value (rape; [2]) was 3 and the “Rape plant response rating” value (rape; [3]) was 3. The “Plant response rating, Rape” value (rape; [4]) was 8, the “Plant response rating, Rape” value (rape; [5]) was 9 and the “Rape plant response rating” value (rape; [6]) was 10. For the same compound, the “Rape plant response rating” value (rape; [10]) was 0, the “Rape plant response rating” value (rape; [8]) was 8 and the “Soybean plant response rating” value (soybean; [9]) was 4. For the same compound, the “Soybean plant response rating” value (soybean; [3]) was 0, the “Plant response rating, Soybean” value (soybean; [4]) was 3 and the “Plant response rating, Soybean” value (soybean; [5]) was 5. For the same compound, the “Soybean plant response rating” value (soybean; [6]) was 8, the “Soybean plant response rating” value (soybean; [10]) was 3 and the “Plant response rating, Soybean” value (soybean; Rate 250 g/ha, Postemergence, scale 0 to 10, 0 is no effect, 10 is complete control) was 4. The “Soybean plant response rating” value (soybean; [8]) was 5, the “Sugarbeets plant response rating” value (sugar beet; [9]) was 2 and the “Sugarbeets plant response rating” value (sugar beet; [3]) was 4. For the same compound, the “Sugarbeets plant response rating (0 to 10 scale)” value (sugar beet; [11]) was 7, the “Plant response rating, Sugarbeets” value (sugar beet; [12]) was 10 and the “Sugarbeets plant response rating” value (sugar beet; [6]) was 10. The “Sugarbeets plant response rating” value (sugar beet; [10]) was 0, the “Plant response rating, Sugarbeets” value (sugar beet; [13]) was 5 and the “Sugarbeets plant response rating” value (sugar beet; [8]) was 7. For the same compound, the “Velvetleaf plant response rating” value (velvetleaf; [9]) was 5, the “Velvetleaf plant response rating” value (velvetleaf; [3]) was 7 and the “Velvetleaf plant response rating (0 to 10 scale)” value (velvetleaf; [11]) was 10. For the same compound, the “Plant response rating, Velvetleaf” value (velvetleaf; [12]) was 10, the “Velvetleaf plant response rating” value (velvetleaf; [6]) was 10 and the “Velvetleaf plant response rating” value (velvetleaf; [10]) was 4. For the same compound, the “Plant response rating, Velvetleaf” value (velvetleaf; [13]) was 5, the “Velvetleaf plant response rating” value (velvetleaf; [8]) was 7 and the “Wheat plant response rating” value (wheat; [9]) was 5. The “Wheat plant response rating” value (wheat; [3]) was 0, the “Wheat plant response rating (0 to 10 scale)” value (wheat; [11]) was 5 and the “Plant response rating, Wheat” value (wheat; [12]) was 7. For the same compound, the “Wheat plant response rating” value (wheat; [6]) was 8, the “Wheat plant response rating” value (wheat; [10]) was 2 and the “Plant response rating, Wheat” value (wheat; [13]) was 7. The “Wheat plant response rating” value (wheat; [8]) was 8, the “Wild oats plant response rating” value (wild oat; [9]) was 3 and the “Wild oats plant response rating” value (wild oat; [3]) was 9. For the same compound, the “Wild oats plant response rating (0 to 10 scale)” value (wild oat; [11]) was 9, the “Plant response rating, Wild oats” value (wild oat; [12]) was 10 and the “Wild oats plant response rating” value (wild oat; [6]) was 10. For the same compound, the “Wild oats plant response rating” value (wild oat; [10]) was 0, the “Plant response rating, Wild oats” value (wild oat; [13]) was 5 and the “Wild oats plant response rating” value (wild oat; [8]) was 9. The “Nutsedge plant response rating” value (purple nutsedge; [9]) was 3, the “Nutsedge plant response rating” value (purple nutsedge; [2]) was 5 and the “Nutsedge plant response rating” value (purple nutsedge; [3]) was 0. The “Plant response rating, Nutsedge” value (purple nutsedge; [4]) was 0, the “Plant response rating, Nutsedge” value (purple nutsedge; [5]) was 2 and the “Nutsedge plant response rating” value (purple nutsedge; [6]) was 6. The “Nutsedge plant response rating” value (purple nutsedge; [10]) was 3, the “Nutsedge plant response rating” value (purple nutsedge; [8]) was 6 and the “Rice plant response rating” value (rice; [14]) was 0. The “Plant response rating, Rice” value (rice; [15]) was 0, the “Rice plant response rating” value (rice; [16]) was 0 and the “Rice plant response rating” value (rice; [17]) was 0. The “S. Flatsedge plant response rating” value (smallflower flatsedge; Pre-emergence, Rate 1000 g/ha, scale 0 to 10 (0 no effect, 10 complete control)) was 0, the “S. Flatsedge plant response rating” value (smallflower flatsedge; [14]) was 0 and the “Plant response rating, S. Flatsedge” value (smallflower flatsedge; [15]) was 0. For the same compound, the “S. Flatsedge plant response rating” value (smallflower flatsedge; [17]) was 5, the “Ducksalad plant response rating” value (duck salad; [14]) was 0 and the “Plant response rating, Ducksalad” value (duck salad; [15]) was 0. The “Ducksalad plant response rating” value (duck salad; [16]) was 0, the “Ducksalad plant response rating” value (duck salad; [17]) was 0 and the “Barnyardgrass plant response rating” value (bamyardgrass; [14]) was 0. For the same compound, the “Plant response rating, Barnyardgrass” value (bamyardgrass; [15]) was 0, the “Barnyardgrass plant response rating” value (bamyardgrass; [16]) was 0 and the “Barnyardgrass plant response rating” value (bamyardgrass; Rate 2000 g/ha, Pre-emergence (as headed), scale 0 to 10, 0 no effect, 10 complete control) was 0.
